The source of these data is patent publication US7410975B2, “Small molecule toll-like receptor (TLR) antagonists” (Coley Pharmaceutical Group, Inc., priority 2003, dated 2008).

The target in the assay is T1, human TLR8 (hTLR8) (Homo sapiens, UniProt Q9NR97).
T1 construct: expressed in transfected cells
T1 sequence (Q9NR97 27-1041): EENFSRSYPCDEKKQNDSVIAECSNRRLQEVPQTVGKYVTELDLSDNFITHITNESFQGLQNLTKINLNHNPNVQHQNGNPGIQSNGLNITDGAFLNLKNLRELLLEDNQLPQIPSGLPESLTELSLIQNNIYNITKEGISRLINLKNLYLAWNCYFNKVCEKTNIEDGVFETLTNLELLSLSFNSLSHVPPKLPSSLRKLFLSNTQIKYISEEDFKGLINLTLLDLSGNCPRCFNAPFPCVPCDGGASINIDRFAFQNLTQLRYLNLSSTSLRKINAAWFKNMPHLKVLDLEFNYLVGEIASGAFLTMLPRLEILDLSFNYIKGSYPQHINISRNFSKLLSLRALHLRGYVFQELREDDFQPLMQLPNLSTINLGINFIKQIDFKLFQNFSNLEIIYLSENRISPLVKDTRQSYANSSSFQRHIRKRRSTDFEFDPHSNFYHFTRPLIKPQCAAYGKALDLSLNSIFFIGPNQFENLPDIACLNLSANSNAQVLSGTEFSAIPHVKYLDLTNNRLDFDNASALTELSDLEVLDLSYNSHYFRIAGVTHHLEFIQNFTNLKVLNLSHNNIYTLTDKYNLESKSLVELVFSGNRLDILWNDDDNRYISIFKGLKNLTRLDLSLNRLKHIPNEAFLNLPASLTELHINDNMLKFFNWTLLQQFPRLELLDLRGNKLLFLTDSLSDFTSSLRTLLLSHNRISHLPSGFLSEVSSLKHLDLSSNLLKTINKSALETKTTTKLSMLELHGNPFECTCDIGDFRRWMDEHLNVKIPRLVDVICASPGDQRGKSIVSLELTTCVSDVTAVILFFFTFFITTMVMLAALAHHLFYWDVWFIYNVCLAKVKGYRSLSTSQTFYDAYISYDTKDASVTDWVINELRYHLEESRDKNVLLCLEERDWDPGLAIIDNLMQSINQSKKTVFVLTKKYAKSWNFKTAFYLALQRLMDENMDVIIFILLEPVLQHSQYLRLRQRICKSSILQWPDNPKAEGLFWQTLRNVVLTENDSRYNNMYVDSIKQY
The assay is described as follows: Antagonist screen, hTLR8-NFκB-293 cells, NF-κB-luciferase reporter, with EC50 of R848. In kind it is cell-based. As to conditions: compound at 0.5, 5, 50 μg/ml; EC50 concentration of R848; 16 h; NF-κB-luciferase. Here is the method: The method is described in greater detail as follows. The cells for each individual cell clone (hTLR3-NFκB-293, hTLR7-NFκB-293, hTLR8-NFκB-293 and hTLR9-NFκB-293) were counted and seeded one day before the stimulation at 1.5×10^4 cells per well in 96-well cell culture plates. To become adherent the cells were incubated after seeding overnight at 37° C. in 5% CO2 humidified air.
The screen for each compound was performed at the same time for all of the receptors TLR3, TLR7, TLR8 and TLR9. Up to fifteen test compounds, each assayed in duplicate at each of three different final concentrations (0.5 μg/ml, 5 μg/ml, and 50 μg/ml), were used for 16 h cell stimulation on a single multiwell culture plate. A 4× final concentration master plate was created to prepare the different test compounds before they were added to the cells.
Controls were added as duplicates individually for each cell clone on the cell culture plate. Positive controls were used as follows (final concentrations): 50 μg/ml poly(I:C) for hTLR3-NFκB-293; 8 μM resiquimod (R848) for hTLR7-NFκB-293; 30 μM R848 for hTLR8-NFκB-293; and 2.5 μM CpG-ODN 2006 for hTLR9-NFκB-293. Media alone was used as negative control. After addition of controls and small molecules, the cell clones were additionally stimulated with the EC50 concentration of the appropriate receptor-specific ligand.
The mean value of wells H2 and H5 (each with cells and EC50 concentration of the appropriate receptor-specific ligand) divided by the mean of wells H3 and H6 (each with cells alone) yielded the baseline response (i.e., fold induction of luciferase activity) to EC50 concentration of the appropriate receptor-specific ligand.
After 16 h stimulation the supernatant was removed and the cells treated with lysis buffer and stored at −80° C. before measuring.
For each screen result a graphical documentation was performed.
The baseline result (measured with addition of the EC50 concentration of the receptor-specific ligand) for each cell culture plate was measured as described above. Antagonistic effects were measured by down regulation compared to the baseline. Antagonists were scored as follows: • 13: compounds for which there was clear down regulation at 0.5 μg/ml, 5 μg/ml, and 50 μg/ml; • 12: compounds for which there was clear down regulation at 5 μg/ml and 50 μg/ml; • 11: compounds for which there was clear down regulation only at 50 μg/ml; • —: compounds for which there was no clear down regulation even at 50 μg/ml. Agonists
Results were expressed as fold induction over baseline luciferase activity measured in the absence of R848. […] Additional screening was performed in like manner using additional small molecules selected from another library or specifically prepared for this purpose. Scoring is reported as above but as applied to TLR8.
(In general: In a reporter assay the amount or activity of a reporter protein is the signal.)
`C=CCc1ccccc1OC1(c2ccccc2)OC(=O)c2ccccc21` (centres unmarked) [compound 957]: the “hTLR8 (inhibitory effect, antagonist score)” value is “— (compounds for which there was no clear down regulation even at 50 μg/ml)”.
The entry for `COC(=O)c1ccc(C2CC(=O)Nc3c2ccc2ccccc32)cc1` (centres unmarked) [compound 965] is “— (compounds for which there was no clear down regulation even at 50 μg/ml)”; for `O=C(O)c1ccc(C2(c3ccc(C(=O)O)cc3)OC(=O)c3ccccc32)cc1` [compound 970] it is “— (compounds for which there was no clear down regulation even at 50 μg/ml)”.
Turning to `Cc1cc(OC(=O)C2C3CCCCC32)c(C(C)C)cc1C1(c2cc(C(C)C)c(OC(=O)C3C4CCCCC43)cc2C)OC(=O)c2ccccc21` (centres unmarked) [compound 974], the “hTLR8 (inhibitory effect, antagonist score)” value was 11 (compounds for which there was clear down regulation only at 50 μg/ml).
As for `CCN(CC)CCCN(CC(=O)C1c2ccc(Cl)cc2NC(=O)c2ccccc21)C(=O)c1ccccc1` (centres unmarked) [compound 1013], the “hTLR8 (inhibitory effect, antagonist score)” value is recorded as “— (compounds for which there was no clear down regulation even at 50 μg/ml)”.
Turning to `O=C1c2ccccc2C(=O)c2c1ccc1c(=O)n(C3CCCCC3)[nH]c21` [compound 1015], the “hTLR8 (inhibitory effect, antagonist score)” value is recorded as 11 (compounds for which there was clear down regulation only at 50 μg/ml).
Turning to `CCOC(=O)c1cc([N+](=O)[O-])cc2c1-c1ccc([N+](=O)[O-])cc1C2=C(C#N)C#N` [compound 1039], the “hTLR8 (inhibitory effect, antagonist score)” value is recorded as 11 (compounds for which there was clear down regulation only at 50 μg/ml).
Take `O=C1c2ccccc2C(=O)c2c1ccc1c(=O)n(-c3ccccc3)[nH]c21` [compound 1042]: the “hTLR8 (inhibitory effect, antagonist score)” value is 13 (compounds for which there was clear down regulation at 0.5 μg/ml, 5 μg/ml, and 50 μg/ml).
The figure for `O=C(c1cccc2c1-c1ccccc1/C2=N\O)N1CCCCC1` [compound 1050] is 11 (compounds for which there was clear down regulation only at 50 μg/ml).
Regarding `NC(=O)c1cccc2c1-c1ccccc1C2` [compound 1132], the “hTLR8 (inhibitory effect, antagonist score)” value is 11 (compounds for which there was clear down regulation only at 50 μg/ml).
For `NC(=O)c1cc(N)c2c(c1N)C(=O)c1ccccc1C2=O` [compound 1158], the “hTLR8 (inhibitory effect, antagonist score)” value is “— (compounds for which there was no clear down regulation even at 50 μg/ml)”.
Regarding `CC(=O)Oc1cc(C)c(C2(c3cc(C(C)C)c(OC(C)=O)cc3C)OC(=O)c3ccccc32)cc1C(C)C` [compound 1161], the “hTLR8 (inhibitory effect, antagonist score)” value is 12 (compounds for which there was clear down regulation at 5 μg/ml and 50 μg/ml).
Take `COC(=O)c1cccc(C(O)(c2ccccc2)c2ccccc2)c1S(=O)(=O)C(C)(C)C` [compound 1187]: the “hTLR8 (inhibitory effect, antagonist score)” value is on record as 11 (compounds for which there was clear down regulation only at 50 μg/ml).
Turning to `CCOCCOC(=O)c1cc([N+](=O)[O-])cc2c1-c1c(cc([N+](=O)[O-])cc1[N+](=O)[O-])C2=C(C#N)C#N` [compound 1241], the “hTLR8 (inhibitory effect, antagonist score)” value is listed as “— (compounds for which there was no clear down regulation even at 50 μg/ml)”.
In the case of `CC1CCN(C(=O)c2cccc3c2-c2ccccc2C3=O)CC1` [compound 1243], the “hTLR8 (inhibitory effect, antagonist score)” value is 11 (compounds for which there was clear down regulation only at 50 μg/ml).
For `Cc1cccc(C2(c3cccc(C)c3)OC(=O)c3ccccc32)c1` [compound 1308] the value was 12 (compounds for which there was clear down regulation at 5 μg/ml and 50 μg/ml).
On to `COCCCNC(=O)c1ccc2c(c1N)C(=O)c1ccccc1C2=O` [compound 1337], for which the “hTLR8 (inhibitory effect, antagonist score)” value is listed as 11 (compounds for which there was clear down regulation only at 50 μg/ml).
Turning to `O=C1Nc2ccccc2Oc2ccc([N+](=O)[O-])cc21` [compound 1352], the “hTLR8 (inhibitory effect, antagonist score)” value is given as “— (compounds for which there was no clear down regulation even at 50 μg/ml)”.
As for Flunarizinehydrochloride [compound 312], the “hTLR8 (inhibitory effect, antagonist score)” value was “— (compounds for which there was no clear down regulation even at 50 μg/ml)”.
Turning to Maprotilinehydrochloride [compound 346], the “hTLR8 (inhibitory effect, antagonist score)” value was 11 (compounds for which there was clear down regulation only at 50 μg/ml).
Turning to Metixene hydrochloride [compound 491], the “hTLR8 (inhibitory effect, antagonist score)” value was 11 (compounds for which there was clear down regulation only at 50 μg/ml).
For “Prochlorperazinedimaleate [compound 399]”, the “hTLR8 (inhibitory effect, antagonist score)” value was 11 (compounds for which there was clear down regulation only at 50 μg/ml).
The figure for “Trifluoperazinedihydrochloride [compound 313]” is 11 (compounds for which there was clear down regulation only at 50 μg/ml).
